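Tested at 5 concentrations; 48 h exposure; 96-well plates; endpoints linearly interpolated, else capped at highest concentration. Here, GI50 denotes the concentration required for 50% inhibition of growth. TGI: concentration producing complete growth inhibition.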
Key:
Experiment in all cases: DTP human tumour cell line panel, 48 h
786-0 renal = test system: 786-0 renal
A498 renal = test system: A498 renal
A549 NSCLC = test system: A549 NSCLC
ACHN renal = test system: ACHN renal
BT-549 breast = test system: BT-549 breast
CAKI-1 renal = test system: CAKI-1 renal
CCRF-CEM leukemia = test system: CCRF-CEM leukemia
COLO 205 colon = test system: COLO 205 colon
DU-145 prostate = test system: DU-145 prostate
EKVX NSCLC = test system: EKVX NSCLC
HCC-2998 colon = test system: HCC-2998 colon
HCT-116 colon = test system: HCT-116 colon
HCT-15 colon = test system: HCT-15 colon
HL-60(TB) leukemia = test system: HL-60(TB) leukemia
HOP-62 NSCLC = test system: HOP-62 NSCLC
HOP-92 NSCLC = test system: HOP-92 NSCLC
HS 578T breast = test system: HS 578T breast
HT29 colon = test system: HT29 colon
IGROV1 ovarian = test system: IGROV1 ovarian
K-562 leukemia = test system: K-562 leukemia
KM12 colon = test system: KM12 colon
LOX IMVI melanoma = test system: LOX IMVI melanoma
M14 melanoma = test system: M14 melanoma
MALME-3M melanoma = test system: MALME-3M melanoma
MCF7 breast = test system: MCF7 breast
MDA-MB-231 breast = test system: MDA-MB-231 breast
MDA-MB-435 = test system: MDA-MB-435
MOLT-4 leukemia = test system: MOLT-4 leukemia
NCI-H226 lung = test system: NCI-H226 lung
NCI-H23 lung = test system: NCI-H23 lung
NCI-H460 lung = test system: NCI-H460 lung
NCI-H522 lung = test system: NCI-H522 lung
NCI/ADR-RES ovarian = test system: NCI/ADR-RES ovarian
OVCAR-3 ovarian = test system: OVCAR-3 ovarian
OVCAR-4 ovarian = test system: OVCAR-4 ovarian
OVCAR-5 ovarian = test system: OVCAR-5 ovarian
OVCAR-8 ovarian = test system: OVCAR-8 ovarian
PC-3 prostate = test system: PC-3 prostate
RPMI-8226 leukemia = test system: RPMI-8226 leukemia
RXF 393 renal = test system: RXF 393 renal
SF-268 CNS = test system: SF-268 CNS
SF-295 CNS = test system: SF-295 CNS
SF-539 CNS = test system: SF-539 CNS
SK-MEL-2 melanoma = test system: SK-MEL-2 melanoma
SK-MEL-28 melanoma = test system: SK-MEL-28 melanoma
SK-MEL-5 melanoma = test system: SK-MEL-5 melanoma
SK-OV-3 ovarian = test system: SK-OV-3 ovarian
SN12C renal = test system: SN12C renal
SNB-19 CNS = test system: SNB-19 CNS
SNB-75 CNS = test system: SNB-75 CNS
SR leukemia = test system: SR leukemia
SW-620 colon = test system: SW-620 colon
T-47D breast = test system: T-47D breast
TK-10 renal = test system: TK-10 renal
U251 CNS = test system: U251 CNS
UACC-257 melanoma = test system: UACC-257 melanoma
UACC-62 melanoma = test system: UACC-62 melanoma
UO-31 renal = test system: UO-31 renal

## C/C(CCC(=O)O)=N/Nc1ccc([N+](=O)[O-])cc1
786-0 renal
  GI50: 4.34 µM
  TGI: > 100 µM
A498 renal
  GI50: > 100 µM
  TGI: > 100 µM
A549 NSCLC
  GI50: 4.41 µM
  TGI: > 100 µM
ACHN renal
  GI50: 2.19 µM
  TGI: > 100 µM
BT-549 breast
  GI50: 42.3 µM
  TGI: > 100 µM
CAKI-1 renal
  GI50: 3.69 µM
  TGI: > 100 µM
CCRF-CEM leukemia
  GI50: 0.696 µM
  TGI: > 100 µM
COLO 205 colon
  GI50: 3.43 µM
  TGI: > 100 µM
DU-145 prostate
  GI50: > 100 µM
  TGI: > 100 µM
EKVX NSCLC
  GI50: 28.5 µM
  TGI: > 100 µM
HCC-2998 colon
  GI50: 5.94 µM
  TGI: > 100 µM
HCT-116 colon
  GI50: 4.31 µM
  TGI: > 100 µM
HCT-15 colon
  GI50: 3.35 µM
  TGI: > 100 µM
HL-60(TB) leukemia
  GI50: 1.51 µM
  TGI: > 100 µM
HOP-62 NSCLC
  GI50: > 100 µM
  TGI: > 100 µM
HOP-92 NSCLC
  GI50: > 100 µM
  TGI: > 100 µM
HS 578T breast
  GI50: > 100 µM
  TGI: > 100 µM
HT29 colon
  GI50: > 100 µM
  TGI: > 100 µM
IGROV1 ovarian
  GI50: > 100 µM
  TGI: > 100 µM
K-562 leukemia
  GI50: 0.563 µM
  TGI: > 100 µM
KM12 colon
  GI50: 0.839 µM
  TGI: > 100 µM
LOX IMVI melanoma
  GI50: 1.84 µM
  TGI: > 100 µM
M14 melanoma
  GI50: 1.53 µM
  TGI: > 100 µM
MALME-3M melanoma
  GI50: 65 µM
  TGI: > 100 µM
MCF7 breast
  GI50: 24.4 µM
  TGI: > 100 µM
MDA-MB-231 breast
  GI50: 7.16 µM
  TGI: > 100 µM
MDA-MB-435
  GI50: 4.37 µM
  TGI: > 100 µM
MOLT-4 leukemia
  GI50: 4.27 µM
  TGI: > 100 µM
NCI-H226 lung
  GI50: > 100 µM
  TGI: > 100 µM
NCI-H23 lung
  GI50: > 100 µM
  TGI: > 100 µM
NCI-H460 lung
  GI50: 3.12 µM
  TGI: > 100 µM
NCI-H522 lung
  GI50: 0.738 µM
  TGI: > 100 µM
NCI/ADR-RES ovarian
  GI50: 4.44 µM
  TGI: > 100 µM
OVCAR-3 ovarian
  GI50: 17.4 µM
  TGI: > 100 µM
OVCAR-4 ovarian
  GI50: > 100 µM
  TGI: > 100 µM
OVCAR-5 ovarian
  GI50: > 100 µM
  TGI: > 100 µM
OVCAR-8 ovarian
  GI50: 42.6 µM
  TGI: > 100 µM
PC-3 prostate
  GI50: 11.5 µM
  TGI: > 100 µM
RPMI-8226 leukemia
  GI50: 57.7 µM
  TGI: > 100 µM
RXF 393 renal
  GI50: > 100 µM
  TGI: > 100 µM
SF-268 CNS
  GI50: 29 µM
  TGI: > 100 µM
SF-295 CNS
  GI50: 2.36 µM
  TGI: > 100 µM
SF-539 CNS
  GI50: 3.18 µM
  TGI: 14.8 µM
SK-MEL-2 melanoma
  GI50: 66.3 µM
  TGI: > 100 µM
SK-MEL-28 melanoma
  GI50: > 100 µM
  TGI: > 100 µM
SK-MEL-5 melanoma
  GI50: 10.1 µM
  TGI: > 100 µM
SK-OV-3 ovarian
  GI50: > 100 µM
  TGI: > 100 µM
SN12C renal
  GI50: > 100 µM
  TGI: > 100 µM
SNB-19 CNS
  GI50: > 100 µM
  TGI: > 100 µM
SNB-75 CNS
  GI50: > 100 µM
  TGI: > 100 µM
SR leukemia
  GI50: 9.3 µM
  TGI: > 100 µM
SW-620 colon
  GI50: 2.6 µM
  TGI: > 100 µM
T-47D breast
  GI50: 3.66 µM
  TGI: > 100 µM
TK-10 renal
  GI50: > 100 µM
  TGI: > 100 µM
U251 CNS
  GI50: > 100 µM
  TGI: > 100 µM
UACC-257 melanoma
  GI50: 70.6 µM
  TGI: > 100 µM
UACC-62 melanoma
  GI50: 0.492 µM
  TGI: 62.3 µM
UO-31 renal
  GI50: 3.27 µM
  TGI: > 100 µM

Reference: PubChem BioAssay (NCI)
